For test [1], the system named is Monoclonal progesterone antibody 11P12. The class given is binding. Conditions: radioimmunoassay. The source says: Monoclonal progesterone antibody was obtained from Dr. Wang of the Imperial Cancer Research Fund Laboratories, Lincolns Inn, London, England. It had been raised against the immunogen progesterone-11 -hemisuccinyl-bovine serum albumin according to the method of V. E. Fantl, D. Y. Wang and R. E. Knyba, J. Steroid Biochem, 1982, 17, 125-130. The monoclonal antibody of choice for use in the specific assay described below is designated 11P12 in the above mentioned publication.
(§1) A radioimmunoassay employing tritiated progesterone and dextran coated charcoal separation of bound and free progesterone was used to assess the immunoreactivity of progesterone derivatives and progesterone-inhibitor conjugates with the monoclonal and polyclonal antisera, by the method of R. B. Heap, R. J. Holdsworth, J. E. Gadsby, J. A. Laing and D. E. Walters, Brit. Vet. J. 1976, 132, 445-464.

The subject of test [2] is Polyclonal antiserum to progesterone (18/3). Format: binding. Conditions: radioimmunoassay, polyclonal antiserum 18/3.
Text: (§2) Polyclonal antisera to progesterone were obtained from the Milk Marketing Board, Veterinary Laboratories, Cleeve House, Lower Wick, Worcester, England and from Guildhay Antisera, Division of Clinical Biochemistry, Department of Biochemistry, University of Surrey, Guildford, Surrey, England. The antiserum from the Milk Marketing Board had been raised against the immunogen progesterone-11α -hemisuccinyl-bovine serum albumin and the Guildhay antiserum raised against progesterone-11α -hemisuccinyl-ovalbumin.
as §1

Test [3] addresses T1, chymosin milk-clotting activity (Bos taurus, UniProt P00794).
T1 construct: purchased Sigma Chemical Co. Ltd., or from recombinant prochymosin (E. coli) supplied by Celltech Ltd; host or cells: calf enzyme, or E. coli for the recombinant prochymosin
The experiment in a line: Milk-clotting assay in microtiter plates. Format: biochemical, calf. The protocol:
Milk-clotting assays were carried out in the wells of microtiter plates. In each assay, after a suitable reaction time, the microtiter plate was inverted. Where clotting occurred, the clots remained in the wells of the plate, and where there was no clotting, the contents of the wells were decanted.
The general assay procedure was as follows:
20 μl of assay buffer containing 0.2% bovine serum albumin was pipetted into the wells of a microtiter plate. This was followed by 25 μl of assay buffer alone, or assay buffer containing the desired concentration of progesterone-inhibitor conjugate followed by 25 μl of assay buffer alone, or assay buffer containing the desired concentration of progesterone antibody. Then 30 μl of assay buffer containing the desired concentration of chymosin was added. This was followed by 100 μl of a milk substrate solution. The microtiter plate containing the assay mixture was placed in an incubator at 37° C. for 1 hour. At the end of this time the plate was inverted over a sink and tapped very lightly a few times, and then placed inverted on some tissue paper. The presence of clots was readily observed and either scored on a microtiter plate diagram or alternatively the inverted plate was photocopied against a dark background.
Dilutions of chymosin in assay buffer were prepared at 1/1000, 1/1100, 1/1210, 1/1331, 1/1464, 1/1611, 1/1772, 1/1949. 30 μl of each diluted enzyme solution was used in each microtiter well. A solution of the progesterone-inhibitor designated P4SP2, at a concentration of 40 pmol/ml was prepared; 25 μl (1 pmol) being used in each microtiter well. Dilutions of sheep polyclonal antiserum HPS 53-IIb (supplied by Guildhay Antisera) were prepared at 1/50, 1/100 and 1/200; 25 ul of each dilution being used in each microtiter well.
A 1/50 dilution of antibody to progesterone (HPS53 IIb--Guildhay antisera) was used, together with a fixed concentration of progesterone-inhibitor conjugate P4SP2 (100 pmol/ml). The final concentration of conjugate was 1 pmol/well. Progesterone was dissolved in assay buffer at a concentration of 0.5 nmol/ml, to give a final concentration of 7.5 pmol/well. Incubation mixtures containing 0.571 ml of assay buffer containing 0.2% BSA, 0.714 ml of dilute antibody, 0.429 ml of progesterone in assay buffer and 0.286 ml of inhibitor conjugate were prepared. Control incubates were also prepared in which antibody, progesterone, or both were replaced by equivalent volumes of assay buffer. A similar series of incubation mixtures in which progesterone-inhibitor conjugate was replaced by assay buffer was also prepared. These mixtures were incubated at 4° C. for 2 hours. At the end of the incubation, 70 μl of incubate was transferred to each well in duplicate rows on the microtitre plate. Dilution of a 1 mg/ml solution of chymosin in assay buffer were prepared as follows: 1/1210 1/1331, 1/1464, 1/1611, 1/1772, 1/1949, 1/2144, 1/2358, 1/2594, 1/2835, 1/3138, 1/3452. 30 μl of each dilution was added to each well in a column of the microtitre plates. These dilutions gave a final concentration of 0.71, 0.64, 0.58, 0.53, 0.48, 0.44, 0.40, 0.36, 0.33, 0.30, 0.27 and 0.25 pmol/well. 100 ul of milk substrate was added to each well and the plates were incubated for one hour at 37° C. before checking for clotting. In the absence of progesterone, antibody and progesterone-inhibitor conjugate, the limiting concentration of chymosin necessary for clotting is 0.36 pmol/well. […]

The target of test [4] is T2, Chymosin (Bos taurus, UniProt P00794).
T2 construct: purchased Sigma Chemical Co. Ltd., or from recombinant prochymosin (E. coli) supplied by Celltech Ltd; host or cells: calf enzyme, or E. coli for the recombinant prochymosin
T2 sequence (P00794 59-381): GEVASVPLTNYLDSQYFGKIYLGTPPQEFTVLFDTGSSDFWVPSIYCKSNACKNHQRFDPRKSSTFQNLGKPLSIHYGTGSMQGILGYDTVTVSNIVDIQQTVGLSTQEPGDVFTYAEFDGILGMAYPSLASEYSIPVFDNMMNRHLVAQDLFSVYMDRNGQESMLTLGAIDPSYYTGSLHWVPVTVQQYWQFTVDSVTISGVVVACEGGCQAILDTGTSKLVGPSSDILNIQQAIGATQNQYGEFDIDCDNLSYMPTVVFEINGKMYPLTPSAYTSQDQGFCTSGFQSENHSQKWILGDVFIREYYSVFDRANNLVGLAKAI
The experiment in a line: Enzyme inhibition with chromogenic peptide substrate. To be noted: pH 6.0. The class given is biochemical, calf. From the text:
Enzyme inhibition data was obtained using synthetic peptide substrates containing a chromophoric nitrophenylalanine residue in the position of the scissile bond so that hydroysis can be followed spectrophotometrically. Hydrolysis was followed at 300 nm and the substrate can be used at any pH value (usually between 2-6) at which the enzyme is active.

For test [5], the system named is Polyclonal antiserum to progesterone HPS 53IIb. The experiment in a line: Radioimmunoassay for immunoreactivity with polyclonal antiserum HPS 53IIb. The class given is binding, sheep.
Text: as §2, §1
Dilutions of chymosin in assay buffer were prepared at 1/1000, 1/1100, 1/1210, 1/1331, 1/1464, 1/1611, 1/1772, 1/1949. 30 μl of each diluted enzyme solution was used in each microtiter well. A solution of the progesterone-inhibitor designated P4SP2, at a concentration of 40 pmol/ml was prepared; 25 μl (1 pmol) being used in each microtiter well. […]

Test [6] addresses Endothia Parasitica Protease (Cryphonectria parasitica, UniProt P11838). The experiment in a line: Enzyme inhibition with chromogenic peptide substrate. Format: biochemical. The source says: Enzyme inhibition data was obtained using synthetic peptide substrates containing a chromophoric nitrophenylalanine residue in the position of the scissile bond so that hydroysis can be followed spectrophotometrically. Hydrolysis was followed at 300 nm and the substrate can be used at any pH value (usually between 2-6) at which the enzyme is active. Kinetic parameters for the hydrolysis of a chromogenic peptide substrate by different types of mammalian aspartic proteinases have been reported J. Kay, M. J. Valler and B. M. Dunn, Naturally-occurring inhibitors of Aspartic Proteinases in Proteinase Inhibitors; N. Katunuma, H. Umezawa and H. Holzer Eds., 1983 Springer-Verlag, Berlin (in press).

Test [7] deals with Polyclonal antiserum to progesterone HPS 645IIc. The experiment in a line: Radioimmunoassay for immunoreactivity with polyclonal antiserum HPS 645IIc. The class given is binding.
Text: as §2, §1

Where [8] appears, read: Endothia Parasitica Protease, pH 3.1.

Numbered stars: 1 amine (or outer) side, 2 acyl side, 3 side chain; on linkers, the order of the positions; unused ones are H or OH. Square brackets hold non-standard residues; d marks the D form. Peptide text beside a SMILES is read from it. * marks the point of attachment. X3 = CC(=O)[C@H]1CC[C@H]2[C@@H]3CCC4=CC(=O)CC[C@]4(C)[C@H]3[C@H](OCC(=O)*)C[C@]12C; X1 = CC(=O)C1CCC2C3CCC4=CC(=O)CCC4(C)C3C(OC3OC(C(=O)*)C(O)C(O)C3O)CC12C; Sta = CC(C)C[C@H](N)[C@@H](O)CC(=O)O; X2 = CC(C)CC(N[*:1])C(O)CC(=O)[*:2]

Endothia Parasitica Protease, sequence (P11838 90-419): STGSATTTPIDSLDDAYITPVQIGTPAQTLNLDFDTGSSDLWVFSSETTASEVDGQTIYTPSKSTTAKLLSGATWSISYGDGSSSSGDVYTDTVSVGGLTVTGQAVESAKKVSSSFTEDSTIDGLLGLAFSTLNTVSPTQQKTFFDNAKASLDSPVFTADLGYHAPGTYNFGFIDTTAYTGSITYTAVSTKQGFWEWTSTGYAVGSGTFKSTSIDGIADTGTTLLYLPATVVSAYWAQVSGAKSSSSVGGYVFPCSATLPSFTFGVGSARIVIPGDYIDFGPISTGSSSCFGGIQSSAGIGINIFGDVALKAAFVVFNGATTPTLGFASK
T1 sequence (P00794 59-381): as the sequence (P00794 59-381) above

Turning to `CC(=O)[C@H]1CC[C@H]2[C@@H]3CCC4=CC(=O)CC[C@]4(C)[C@H]3[C@H](OC3O[C@H](C(=O)O)[C@@H](O)[C@H](O)[C@H]3O)C[C@]12C` (stereo partly drawn) [I, Progesterone11α-glucuronide, reference compound], the “Immunoreactivity Monoclonal 11P12” value in test [1] was 151%. Moreover, the “Immunoreactivity Polyclonal (18/3)” value in test [2] was 92.1%.
`CC(=O)[C@H]1CC[C@H]2[C@@H]3CCC4=CC(=O)CC[C@]4(C)[C@H]3[C@H](OCC(=O)O)C[C@]12C` [II, Progesterone11α-carboxymethylether, reference compound]: the “Immunoreactivity Monoclonal 11P12” value in test [1] stood at 77.4%.
For the compound `CC(=O)[C@H]1CC[C@H]2[C@@H]3CCC4=CC(=O)CC[C@]4(C)[C@H]3CC[C@]12C` [Progesterone, reference compound], in test [3] (progesterone alone, 7.5 pmol/well, no conjugate, compared with control 0.36 pmol/well), the “limiting concentration of chymosin necessary for clotting” value is reported as “remains the same”.
Usually Ki stands for the equilibrium dissociation constant of an inhibitor or competing ligand from its target. A high value points to weaker binding. For `CC[C@H](C)[C@H](NC(=O)[C@H](C)NC(=O)C[C@H](O)[C@H](CC(C)C)NC(=O)[C@H](CO)NC(=O)[C@H](CC(C)C)NC(=O)CO[C@@H]1C[C@]2(C)[C@@H](C(C)=O)CC[C@H]2[C@@H]2CCC3=CC(=O)CC[C@]3(C)[C@H]21)C(=O)N1CCC[C@H]1C(=O)N1CCC[C@H]1C(=O)N[C@@H](CCCCN)C(=O)N[C@@H](CCCCN)C(=O)O` [VII] (X3-LS[Sta]AIPPKK-OH), the Ki in test [4] came to 6.7 nM; in test [6] (Endothia, pH 6.0) it was 26 nM. For the same compound, in test [1], the “Immunoreactivity Monoclonal 11P12” value came out at 17.1%. Moreover, the “Immunoreactivity Polyclonal (18/3)” value in test [2] came to 33.6%. Also, the “Immunoreactivity Polyclonal (HPS 53IIb)” value in test [5] is given as 42.1%. For the same compound, the “Immunoreactivity Polyclonal (HPS 645IIc)” value in test [7] stood at 17.4%.
Regarding `CCC(C)C(NC(=O)C(C)NC(=O)CC(O)C(CC(C)C)NC(=O)C(CO)NC(=O)C(CC(C)C)NC(=O)C1OC(OC2CC3(C)C(C(C)=O)CCC3C3CCC4=CC(=O)CCC4(C)C23)C(O)C(O)C1O)C(=O)N1CCCC1C(=O)N1CCCC1C(=O)NC(CCCCN)C(=O)NC(CCCCN)C(=O)O` (stereo not shown) [VI] (X1-LS[X2]AIPPKK-OH; configuration not given here), the Ki in test [4] amounted to 20 nM; in test [6] (Endothia, pH 6.0), 470 nM. The “Immunoreactivity Monoclonal 11P12” value in test [1] is on record as 3.8%. Also, the “milk clotting with conjugate in the presence of antibody” value in test [3] (1 pmol/well conjugate plus 1/50 antibody HPS53 IIb (FIG. 3)) is “clotting is restored”. In test [3] (1 pmol/well conjugate, 1/50 antibody HPS53 IIb, progesterone 7.5 pmol/well (FIG. 3)), the “milk clotting with conjugate in the presence of antibody and free progesterone” value is “antibody restoration of clotting activity was impaired”. The “modulation by antibody of the conjugate's inhibition of chymosin milk clotting activity” value in test [3] (1 pmol/well conjugate, antiserum HPS 53-IIb at 1/50, 1/100, 1/200, chymosin dilutions 1/1000-1/1949 (FIG. 1)) is reported as “can be modulated by the addition of antibody”. Moreover, the “chymosin required to give a visible clot (limiting concentration of chymosin necessary for clotting)” value in test [3] (1 pmol/well of the inhibitor conjugate, no antibody, no progesterone, 1 h 37° C., control without additions 0.36 pmol/well) turned out to be 0.44 pmol/well. In test [2], the “Immunoreactivity Polyclonal (18/3)” value is on record as 16.4%. For the same compound, the “Immunoreactivity Polyclonal (HPS 53IIb)” value in test [5] is given as 34%.
For the compound `CCC(C)C(NC(=O)C(C)NC(=O)CC(O)C(CC(C)C)NC(=O)C(CO)NC(=O)C(CC(C)C)NC(=O)C(Cc1c[nH]cn1)NC(=O)C1OC(OC2CC3(C)C(C(C)=O)CCC3C3CCC4=CC(=O)CCC4(C)C23)C(O)C(O)C1O)C(=O)N1CCCC1C(=O)N1CCCC1C(=O)NC(CCCCN)C(=O)NC(CCCCN)C(=O)O` (stereo not shown) [V] (X1-HLS[X2]AIPPKK-OH; configuration not given here), the Ki in test [4] worked out at 52 nM; in test [6] (Endothia, pH 6.0) it was 40 nM. Besides, the “Immunoreactivity Monoclonal 11P12” value in test [1] is 31.8%. Moreover, the “Immunoreactivity Polyclonal (18/3)” value in test [2] is recorded as 9.5%.
Achisleuserstualaileproprolyslys [IV] yielded an inhibition constant (Ki) in test [6] (setting [8]) of 6 nM.
On the same count and under the same terms, as for “Hisleuserphestatalaileproprolyslys [III]”, the figure is 10 nM.

Values taken from US4716109A, “Immunoassay” (Boots-Celltech Diagnostics Limited, priority 1983, dated 1987).
